Results from PMC5843698, “Use of QSPR Modeling to Characterize In Vitro Binding of Drugs to a Gut-Restricted Polymer” (Pharmaceutical Research, 2018).
Counter-ions that a name gives are not always drawn. Like-named read-outs stand apart in the source and are kept apart here.

Columns and labels:
[1] = logD determination (liquid-liquid distribution chromatography, octanol-coated column)
Method: The logD of the sample was determined at pH 7.4 by liquid-liquid distribution chromatography. Compounds were eluted from an octanol-coated column with an octanol-saturated mobile phase adjusted to pH 7.4. Compound retention time was converted to logD value by comparison to the retention time of a set of standard compounds with well-characterized logD octanol values.

[2] = logP determination by titration in octanol/water
From the text: The shift of the aqueous pKas in the presence of octanol was used to determine the logP of the different species.

[3] = In vitro binding assay: free test drug recovered after 3 h incubation with and without patiromer in SGF, acetate buffer or SIF; conditions: for SGF / SIF / AB: QSPR input data; for SGF: test matrix SGF; for SIF: test matrix SIF; for AB: test matrix acetate buffer (AB); for In Vitro Binding (% Drug Recovered) SGF (pH 3): simulated gastric fluid, final pH 3.0; for In Vitro Binding (% Drug Recovered) SIF (pH 5.9): simulated intestinal fluid, final pH 5.9; for In vitro patiromer binding category: strong, weak or non-binding
Method: Patiromer binding to test compounds was assessed by comparing free test drug concentrations after incubation with and without patiromer. […] Test drug concentrations were based on the lowest clinically relevant dose of test drug in US prescribing information in a 1-L volume.
Three test buffers were used: simulated gastric fluid without added pepsin (SGF; initial pH 1.2), acetate buffer (AB; initial pH 4.5), and simulated intestinal fluid without added pancreatin (SIF; initial pH 6.8). Tween-20 was included at 0.05% v/v as a surfactant to aid in solubilizing test drugs.
Binding studies were performed in a 10 ml volume in 16×100 mm borosilicate tubes, and incubated for 3 h at 37°C with end-over-end rotation at ~25 rpm. After incubation, patiromer was allowed to settle for 5 min; supernatants were withdrawn and passed through a 0.45 μm filter, collected by centrifugation, and transferred to chromatography vials for analysis. Control samples containing buffer and drug, but without patiromer, were subjected to the same experimental process. For 24 of the test drugs, a reversed phase high performance liquid chromatography method was used for analysis in the three test matrices. […] During method qualification, we conducted a pretest of each drug in test media alone to assure no significant loss in recovery during the incubation or filtration steps. If there was not sufficient recovery compared to theoretical concentration, the drug could not be evaluated in that medium. The recovered drug in the presence or absence of patiromer was used to calculate percent recovery of test drug, and represents the geometric mean of 12 replicates.
To measure binding, each compound was co-incubated with patiromer using the highest single clinical dose of polymer and the minimum clinical dose of test drug. […] Following co-incubation, patiromer and any bound drug were removed by centrifugation and the remaining unbound (recovered) drug was measured in the supernatant.

[4] = pKa determination by titration in aqueous solution (UV or pH monitored)
Method: Test drug pKas were determined experimentally by titration in aqueous solution. Ionization state was monitored by UV or pH. Reported values are the average of three independent determinations. […] Drug concentration was in the range 17–31 μM (UV) or ≥0.4 mM (pH).

[5] = octanol-coated column with octanol-saturated mobile phase, pH 3
[6] = octanol-coated column with octanol-saturated mobile phase, pH 4.5
[7] = octanol-coated column with octanol-saturated mobile phase, pH 5.9
[8] = acetate buffer pH 4.5, patiromer 25.2 g/L, 3 h, 37°C, geometric mean of 12 replicates
[9] = across SGF, AB and SIF test matrices
[10] = patiromer 25.2 g/L, 3 h, 37°C, geometric mean of 12 replicates
[11] = aqueous solution, pKa (A = acid), acidic group, average of three determinations
[12] = aqueous solution, pKa (B = base), basic group, average of three determinations

Molecule	chromatographic logD [1, 5]	chromatographic logD [1, 6]	chromatographic logD [1, 7]	logP ([2]; octanol/water)	SGF [3]	SIF [3]	AB [3]	In Vitro Binding (% Drug Recovered) Acetate Buffer (pH 4.5) [3, 8] [%]	Binding categories (level of in vitro interaction with patiromer) [3, 9]	In Vitro Binding (% Drug Recovered) SGF (pH 3) [3, 10] [%]	In Vitro Binding (% Drug Recovered) SIF (pH 5.9) [3, 10] [%]	also measured
COc1ccc(-n2nc(C(N)=O)c3c2C(=O)N(c2ccc(N4CCCCC4=O)cc2)CC3)cc1 [Apixaban]	< 1.4	< 1.4	< 1.4	< 1.4	75.6	97.8	97.3	97.3	No binding (<30% drug bound in any test matrix)	75.6	97.8	–
Cc1cc2nc3c(=O)[nH]c(=O)nc-3n(C[C@H](O)[C@H](O)[C@H](O)CO)c2cc1C [Riboflavin]	< -1.5	< -1.5	< -1.5	< -1.5	–	–	–	–	–	–	–	pKa [4, 11]: 9.87
NS(=O)(=O)c1cc(C(=O)O)c(NCc2ccco2)cc1Cl [Furosemide]	–	–	–	–	67.3	79.1	94.5	94.5	Weak binder (30–55% bound in one test matrix)	67.3	79.1	–
NCCCC[C@H](N[C@@H](CCc1ccccc1)C(=O)O)C(=O)N1CCC[C@H]1C(=O)O [Lisinopril]	-0.85	-0.52	-0.54	-0.51	77.9	98.5	100.7	100.7	No binding (<30% drug bound in any test matrix)	77.9	98.5	pKa [4, 11]: 1.63; pKa [4, 12]: 7.13
CCOC(=O)C1=C(COCCN)NC(C)=C(C(=O)OC)C1c1ccccc1Cl (stereo not shown) [Amlodipine besylate]	1.44	1.44	1.46	3.39	–	–	–	–	–	–	–	–
CC1=C(C(=O)O)N2C(=O)[C@@H](NC(=O)[C@H](N)c3ccccc3)[C@H]2SC1 [Cephalexin]	–	–	–	–	88.7	104.4	95	95	No binding (<30% drug bound in any test matrix)	88.7	104.4	In vitro patiromer binding category [3]: non-binding
O=C([O-])[O-].[Li+].[Li+] [Lithium carbonate]	–	–	–	–	–	–	–	88.8	–	93.3	56.9	Binding categories (level of in vitro interaction with patiromer) [3]: Weak binder (key: No binding: <30% drug bound in any test matrix; Weak binder: 30–55% bound in one test matrix; Strong binder: >55% bound in two or three test matrices)
CC(C)c1c(C(=O)Nc2ccccc2)c(-c2ccccc2)c(-c2ccc(F)cc2)n1CC[C@@H](O)C[C@@H](O)CC(=O)O [Atorvastatin calcium]	–	–	–	–	91.2	101.1	93.3	93.3	No binding (<30% drug bound in any test matrix)	91.2	101.1	–
CCCCC(=O)N(Cc1ccc(-c2ccccc2-c2nnn[nH]2)cc1)[C@H](C(=O)O)C(C)C [Valsartan]	–	–	–	–	86.4	98	101.4	101.4	No binding (<30% drug bound in any test matrix)	86.4	98	In vitro patiromer binding category [3]: non-binding
O=C(NC[C@H]1CN(c2ccc(N3CCOCC3=O)cc2)C(=O)O1)c1ccc(Cl)s1 [Rivaroxaban]	1.43	1.43	1.43	1.43	71.9	95.1	92.9	92.9	No binding (<30% drug bound in any test matrix)	71.9	95.1	–
COCCc1ccc(OCC(O)CNC(C)C)cc1 (stereo not shown) [Metoprolol tartrate]	-4.7	-3.2	-1.8	1.91	–	–	–	–	–	–	–	–
CC1(C)S[C@@H]2[C@H](NC(=O)[C@H](N)c3ccc(O)cc3)C(=O)N2[C@H]1C(=O)O [Amoxicillin]	1.65	0.46	0	-0.02	–	99.4	99.2	99.2	No binding (<30% drug bound in any test matrix)	–	99.4	pKa (A = acid) ([4]; acidic group, average of three determinations): 2.60; pKa [4, 11]: 9.59; pKa [4, 12]: 7.35
CC(=O)Oc1ccccc1C(=O)O [Aspirin]	0.78	-0.14	-1.5	0.9	100.7	99.9	99.8	99.8	No binding (<30% drug bound in any test matrix)	100.7	99.9	–
Cc1cnc(C(=O)NCCc2ccc(S(=O)(=O)NC(=O)NC3CCCCC3)cc2)cn1 [Glipizide]	–	–	–	–	72.9	98.5	96.5	–	No binding (<30% drug bound in any test matrix)	72.9	98.5	In Vitro Binding (% Drug Recovered) Acetate Buffer (pH 4.5) ([3]; pH 4.5): 96.5%
CC(=O)CC(c1ccccc1)c1c(O)c2ccccc2oc1=O (racemic) [Warfarin (R/S), Warfarin]	–	–	–	–	–	–	–	–	–	–	–	chromatographic logD ([1]; pH 3): 3.25; chromatographic logD ([1]; pH 4.5): 3.12; chromatographic logD ([1]; pH 5.9): 2.25; logP [2]: 3.25; pKa [4]: 4.94
CC(=O)S[C@@H]1CC2=CC(=O)CC[C@]2(C)[C@H]2CC[C@@]3(C)[C@@H](CC[C@@]34CCC(=O)O4)[C@H]12 [Spironolactone]	2.53	2.53	2.53	2.53	78.7	96.8	98.6	98.6	No binding (<30% drug bound in any test matrix)	78.7	96.8	–
Digoxin	–	–	–	–	–	103.4	109.3	109.3	No binding (<30% drug bound in any test matrix)	–	103.4	–
